Among the data in ChEMBL document CHEMBL4368854, “Assessment of a bifendate derivative bearing a 6,7-dihydro-dibenzo[c,e]azepine scaffold as a potential anti-metastatic agent” (Medchemcomm, 2018) are Activity, inhibition and IC50 values, retold here.

Molecules are shown by their SMILES. Activity calls are given as the source filed them. The calls are words filed in the database; no cut-off is given here. Some results are limits rather than exact numbers.

The subject of assay [1] is MDA-MB-231. In words: Antimigratory activity against human MDA-MB-231 cells assessed as reduction in cell migration towards wound area at 45 uM measured up to 24 hrs by inverted microscopic analysis. The assay is classed as functional, cell-based.
Assay [2] deals with MDA-MB-231. In words: Anti-invasive activity against human MDA-MB-231 cells at 15 uM after 24 hrs by crystal violet staining based matrigel coated transwell assay relative to control. The assay is classed as functional.
Assay [3] addresses 72 kDa type IV collagenase (Homo sapiens) (UniProt P08253). In words: Inhibition of MMP2 activity in human MDA-MB-231 cells measured after 24 hrs by coomassie brilliant blue staining based gelatin zymographic method. It counts as cell-based.
Assay [4] has as its target Matrix metalloproteinase-9 (Homo sapiens) (UniProt P14780). In words: Inhibition of MMP9 activity in human MDA-MB-231 cells at 45 uM measured after 24 hrs by coomassie brilliant blue staining based gelatin zymographic method. It counts as cell-based.
The test system of assay [5] is MDA-MB-231. In words: Antimigratory activity against human MDA-MB-231 cells at 15 uM after 24 hrs by crystal violet staining based transwell assay relative to control. The assay is classed as functional.
In assay [6] the target is 72 kDa type IV collagenase (Homo sapiens) (UniProt P08253). In words: Inhibition of MMP2 activity in human MDA-MB-231 cells at 45 uM measured after 24 hrs by coomassie brilliant blue staining based gelatin zymographic method. It counts as cell-based.
Sequence of 72 kDa type IV collagenase (Homo sapiens) (P08253 110-660 limits assumed): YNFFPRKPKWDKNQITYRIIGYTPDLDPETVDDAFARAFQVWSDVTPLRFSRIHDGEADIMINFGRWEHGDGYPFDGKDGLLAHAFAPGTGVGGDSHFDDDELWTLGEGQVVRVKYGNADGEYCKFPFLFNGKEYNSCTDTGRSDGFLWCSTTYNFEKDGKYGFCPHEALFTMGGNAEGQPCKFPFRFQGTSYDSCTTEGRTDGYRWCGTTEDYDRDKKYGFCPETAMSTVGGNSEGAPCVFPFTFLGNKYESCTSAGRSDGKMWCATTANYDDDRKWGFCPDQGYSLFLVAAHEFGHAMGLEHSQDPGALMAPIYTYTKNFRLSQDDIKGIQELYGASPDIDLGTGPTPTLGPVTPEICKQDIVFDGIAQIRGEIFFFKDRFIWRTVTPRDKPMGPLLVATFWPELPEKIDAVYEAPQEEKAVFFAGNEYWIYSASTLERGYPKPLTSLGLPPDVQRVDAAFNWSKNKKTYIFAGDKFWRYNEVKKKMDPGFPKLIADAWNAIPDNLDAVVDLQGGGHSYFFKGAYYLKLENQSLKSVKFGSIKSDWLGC
Assay [7] has as its system MDA-MB-231. In words: Down regulation of MMP2 expression in human MDA-MB-231 cells after 24 hrs by Western blot analysis. The assay is classed as functional, cell-based.
Assay [8] has as its system MDA-MB-231. Nature of the assay: Antimigratory activity against human MDA-MB-231 cells assessed as reduction in cell migration towards wound area at 5 to 45 uM measured up to 24 hrs by inverted microscopic analysis. It counts as functional, cell-based.
The test system of assay [9] is MDA-MB-231. Nature of the assay: Cytotoxicity against human MDA-MB-231 cells after 72 hrs by MTT assay. It counts as functional, cell-based. Particulars: MDA-MB-231, 72 h. In general terms: Formazan colour is commonly taken as a measure of viable cells.
The test system of assay [10] is MDA-MB-231. Nature of the assay: Anti-invasive activity against human MDA-MB-231 cells at 45 uM after 24 hrs by crystal violet staining based matrigel coated transwell assay relative to control. The assay is classed as functional.
Assay [11] deals with MDA-MB-231. In words: Antimigratory activity against human MDA-MB-231 cells at 45 uM after 24 hrs by crystal violet staining based transwell assay relative to control. The assay is classed as functional.
The target in assay [12] is Matrix metalloproteinase-9 (Homo sapiens) (UniProt P14780). Nature of the assay: Inhibition of MMP9 activity in human MDA-MB-231 cells measured after 24 hrs by coomassie brilliant blue staining based gelatin zymographic method. It counts as cell-based.
Sequence of Matrix metalloproteinase-9 (Homo sapiens) (P14780 whole entry): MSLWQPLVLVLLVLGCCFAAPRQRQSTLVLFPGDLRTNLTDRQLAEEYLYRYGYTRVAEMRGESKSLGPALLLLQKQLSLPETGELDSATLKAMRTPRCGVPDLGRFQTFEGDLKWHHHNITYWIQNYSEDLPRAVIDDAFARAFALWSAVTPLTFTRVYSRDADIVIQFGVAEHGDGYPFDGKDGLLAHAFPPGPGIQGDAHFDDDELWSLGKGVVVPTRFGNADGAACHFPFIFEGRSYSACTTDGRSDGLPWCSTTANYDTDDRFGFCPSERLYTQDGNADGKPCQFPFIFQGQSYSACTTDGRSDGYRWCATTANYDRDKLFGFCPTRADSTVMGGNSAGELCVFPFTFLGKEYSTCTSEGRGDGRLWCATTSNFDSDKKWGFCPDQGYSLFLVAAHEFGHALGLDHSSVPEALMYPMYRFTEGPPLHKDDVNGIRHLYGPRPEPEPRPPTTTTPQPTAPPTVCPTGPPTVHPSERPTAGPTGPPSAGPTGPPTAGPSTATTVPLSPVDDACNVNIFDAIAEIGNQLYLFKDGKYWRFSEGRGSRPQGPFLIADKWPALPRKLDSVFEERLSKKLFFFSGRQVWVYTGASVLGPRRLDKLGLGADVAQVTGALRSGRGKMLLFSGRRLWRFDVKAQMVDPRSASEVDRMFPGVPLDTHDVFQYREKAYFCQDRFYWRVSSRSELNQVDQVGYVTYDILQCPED
For assay [13], the system named is MDA-MB-231. Nature of the assay: Down regulation of MMP9 expression in human MDA-MB-231 cells after 24 hrs by Western blot analysis. It counts as functional, cell-based. (In western blotting, separated proteins are transferred to a membrane and probed.)

As to `COC(=O)c1cc(OC)c2c(c1-c1c(C(=O)OC)cc(OC)c3c1OCO3)OCO2`, the outcome in assay [1] was Active.
Consider `COc1cc2c(c3c1OCO3)-c1c(cc(OC)c3c1OCO3)CN(CCc1ccc3c(c1)OCO3)C2`, for which the Activity result in assay [2] was “<=54.4%”; in assay [5] it was 32.9%; in assay [7], “Dose-dependent effect”; in [10], 71.2%; in assay [11], 47.5%; in assay [13], “Dose-dependent effect”. For the same compound, the inhibition – broadly, the relative decrease from the control value, in per cent – in assay [3] is “Dose-dependent effect”; in [4], 30.8%; in assay [6], 56.9%; in assay [12], “Dose-dependent effect”. For the same compound, the outcome in assay [8] was Active. The IC50 (commonly the concentration that inhibits the measured activity by half) in [9] was found to be 88 µM.
